Experimental data taken from US8501767B2, “Imidazopyridines and imidazopyrimidines as HIV-1 reverse transcriptase inhibitors” (CSIR, priority 2008, dated 2013).

Biological target: HIV-1 reverse transcriptase (Human immunodeficiency virus type 1 group M subtype B (isolate HXB2) (HIV-1), UniProt P04585)
Assay: Enzymatic assay against HIV-1 reverse transcriptase (sandwich-ELISA, ROCHE colorimetric reverse transcriptase kit)
Format: biochemical
Conditions: 4-fold serial dilutions
Method: Enzymatic Method for Determining Activity Against Reverse Transcriptase
Biotin and DIG-labelled nucleotides are incorporated into cDNA strands polymerized on an RNA template by the action of HIV-1 reverse transcriptase. The cDNA products are bound to streptavidin-coated wells of 96-well plate inserts, and their associated DIG-moieties detected by incubation with anti-DIG antibodies conjugated to horseradish peroxidase (HRP).
In the single concentration screen, compounds are incubated with HIV-1 reverse trancriptase and substrate and the residual enzyme activity expressed as a percentage relative to a control without inhibitor.

Q: How did the IC50 turn out when `Clc1ccccc1-c1nc2cccc(Cl)n2c1NC1CCCC1` [Compound 48, 5-chloro-2-(2-chlorophenyl)-N-cyclopentylimidazo[1,2-a]pyridin-3-amine] was run?
A: The IC50 was 5.14 µM.

Q: For `Fc1ccc2nc(-c3ccccc3Cl)c(NC3CCCCC3)n2c1` [Compound 81, 2-(2-chlorophenyl)-N-cyclohexyl-6-fluoroimidazo[1,2-a]pyridin-3-amine], which IC50 is on record?
A: The IC50 was 11.3 µM.

Q: Which IC50 does the source give for `N#Cc1ccc2nc(-c3ccccc3Cl)c(NC3CCCCC3)n2c1` [Compound 96, 2-(2-chlorophenyl)-3-(cyclohexylamino)imidazo[1,2-a]pyridine-6-carbonitrile] here?
A: Its IC50 is 6.6 µM.

Q: `Clc1ccc(-c2nc3ccccn3c2NC2CCCCC2)c(Cl)c1` [Compound 89, N-cyclohexyl-2-(2,4-dichlorophenyl)imidazo[1,2-a]pyridin-3-amine] was tested. Which IC50 did it give?
A: Its IC50 is 21.8 µM.

Q: For `Cc1cccn2c(NC3CCCC3)c(-c3ccccc3Cl)nc12` [Compound 170, 2-(2-chlorophenyl)-N-cyclopentyl-8-methylimidazo[1,2-a]pyridin-3-amine], which IC50 is on record?
A: Its IC50 is 15.9 µM.

Q: For `Clc1ccccc1-c1nc2cccc(Br)n2c1NC1CCCCC1` [Compound 42, 5-bromo-2-(2-chlorophenyl)-N-cyclohexylimidazo[1,2-a]pyridin-3-amine], which IC50 is on record?
A: The IC50 was 4.62 µM.

Q: `Cc1cccc2nc(-c3ccccc3Cl)c(NC3CCCCC3)n12` [Compound 166, 2-(2-chlorophenyl)-N-cyclohexyl-5-methylimidazo[1,2-a]pyridin-3-amine] was tested. Which IC50 did it give?
A: The IC50 was 1.55 µM.

Q: How did the IC50 turn out when `Clc1ccc2nc(-c3ccccc3Cl)c(NC3CCCCC3)n2c1` [Compound 82, 6-chloro-2-(2-chlorophenyl)-N-cyclohexylimidazo[1,2-a]pyridin-3-amine] was run?
A: Its IC50 is 14.5 µM.

Q: `Cc1cccc2nc(-c3ccccc3Cl)c(NC3CCCC3)n12` [Compound 171, 2-(2-chlorophenyl)-N-cyclopentyl-5-methylimidazo[1,2-a]pyridin-3-amine] was tested. Which IC50 did it give?
A: Its IC50 is 1.43 µM.

Q: With `N#Cc1cccc2nc(-c3ccccc3Cl)c(NC3CCCCC3)n12` [Compound 116, 2-(2-chlorophenyl)-3-(cyclohexylamino)imidazo[1,2-a]pyridine-5-carbonitrile] as the molecule, how does the IC50 read?
A: The IC50 was 3.47 µM.

Q: Which IC50 does the source give for `Clc1ccccc1-c1nc2cccc(Cl)n2c1NC1CCCCC1` [Compound 104, 5-chloro-2-(2-chlorophenyl)-N-cyclohexylimidazo[1,2-a]pyridin-3-amine] here?
A: Its IC50 is 3.74 µM.

Q: How did the IC50 turn out when `Cc1ccc2nc(-c3ccccc3Cl)c(NC3CCCCC3)n2c1` [Compound 163, 2-(2-chlorophenyl)-N-cyclohexyl-6-methylimidazo[1,2-a]pyridin-3-amine] was run?
A: Its IC50 is 5.39 µM.

Q: `Clc1ccccc1-c1nc2ccc(Br)cn2c1NC1CCCCC1` [Compound 99, 6-bromo-2-(2-chlorophenyl)-N-cyclohexylimidazo[1,2-a]pyridin-3-amine] was tested. Which IC50 did it give?
A: Its IC50 is 12.2 µM.

Q: With `Cc1ccc(Cl)c(-c2nc3ccccn3c2NC2CCCCC2)c1F` [Compound 74, 2-(6-chloro-2-fluoro-3-methylphenyl)-N-cyclohexylimidazo[1,2-a]pyridin-3-amine] as the molecule, how does the IC50 read?
A: The IC50 was 90 µM.

Q: `Brc1ccccc1-c1nc2ccccn2c1NC1CCCCC1` [Compound 43, 2-(2-bromophenyl)-N-cyclohexylimidazo[1,2-a]pyridin-3-amine] was tested. Which IC50 did it give?
A: Its IC50 is 10 µM.

Q: `Clc1ccccc1-c1nc2ccc3ccccc3n2c1NC1CCCCC1` [Compound 97, 2-(2-chlorophenyl)-N-cyclohexylimidazo[1,2-a]quinolin-1-amine] was tested. Which IC50 did it give?
A: The IC50 was 7.52 µM.

System: HIV-1
Assay: Whole cell PBMC anti-HIV assay (human PBMCs, supernatant reverse transcriptase activity)
Format: cell-based
Conditions: Human immunodeficiency virus 1, PBMC
Method: Fresh human PBMCs, seronegative for HIV and HBV, were isolated from screened donors (Interstate Blood Bank, Inc. Memphis, Tenn.). Cells were pelleted/washed 2-3 times by low speed centrifugation and re-suspension in PBS to remove contaminating platelets. The Leukophoresed blood was then diluted 1:1 with Dulbecco's Phosphate Buffered Saline (DPBS) and layered over 14 mL of Lymphocyte Separation Medium (LSM; Cellgro® by Mediatech, Inc.; density 1.078+/−0.002 g/ml; Cat.#85-072-CL) in a 50 mL centrifuge tube and then centrifuged for 30 minutes at 600×g. Banded PBMCs were gently aspirated from the resulting interface and subsequently washed 2× with PBS by low speed centrifugation. […]
For the standard PBMC assay, PHA-P stimulated cells from at least two normal donors were pooled (mixed together), diluted in fresh medium to a final concentration of 1×10^6 cells/mL, and plated in the interior wells of a 96 well round bottom microplate at 50 μl/well (5×10^4 cells/well) in a standard format developed by the Infectious Disease Research department of Southern Research Institute. Pooling (mixing) of mononuclear cells from more than one donor is used to minimize the variability observed between individual donors, which results from quantitative and qualitative differences in HIV infection and overall response to the PHA and IL-2 of primary lymphocyte populations. […]

Q: Which IC50 does the source give for `Clc1ccccc1-c1nc2ccccn2c1NC1CCCCC1` [Compound 8, 2-(2-chlorophenyl)-N-cyclohexylimidazo[1,2-a]pyridin-3-amine] here?
A: The IC50 was 0.16 µM.

Q: For `Cc1ccnc2c1NC(=O)c1cccnc1N2C1CC1` [Nevirapine, reference compound], which IC50 is on record?
A: Its IC50 is 0.033 µM.

System: HIV-1
Assay: Whole cell MAGI anti-HIV assay (MAGI-R5 cells, LTR-β-galactosidase reporter)
Format: cell-based
Conditions: Human immunodeficiency virus 1, MAGI

Q: With `Fc1ccc2nc(-c3ccccc3Cl)c(NC3CCCCC3)n2c1` [Compound 81, 2-(2-chlorophenyl)-N-cyclohexyl-6-fluoroimidazo[1,2-a]pyridin-3-amine] as the molecule, how does the IC50 read?
A: The IC50 was 1.88 µM.

Q: With `N#Cc1ccc2nc(-c3ccccc3Cl)c(NC3CCCCC3)n2c1` [Compound 96, 2-(2-chlorophenyl)-3-(cyclohexylamino)imidazo[1,2-a]pyridine-6-carbonitrile] as the molecule, how does the IC50 read?
A: Its IC50 is 0.63 µM.

Q: For `Clc1ccc(-c2nc3ccccn3c2NC2CCCCC2)c(Cl)c1` [Compound 89, N-cyclohexyl-2-(2,4-dichlorophenyl)imidazo[1,2-a]pyridin-3-amine], which IC50 is on record?
A: The IC50 was 2.95 µM.

Q: How did the IC50 turn out when `Clc1ccccc1-c1nc2cccc(Br)n2c1NC1CCCCC1` [Compound 42, 5-bromo-2-(2-chlorophenyl)-N-cyclohexylimidazo[1,2-a]pyridin-3-amine] was run?
A: Its IC50 is 3.15 µM.

Q: `Clc1ccc2nc(-c3ccccc3Cl)c(NC3CCCCC3)n2c1` [Compound 82, 6-chloro-2-(2-chlorophenyl)-N-cyclohexylimidazo[1,2-a]pyridin-3-amine] was tested. Which IC50 did it give?
A: The IC50 was 0.84 µM.

Q: `Clc1ccccc1-c1nc2ccccn2c1NC1CCCC1` [Compound 118, 2-(2-chlorophenyl)-N-cyclopentylimidazo[1,2-a]pyridin-3-amine] was tested. Which IC50 did it give?
A: The IC50 was 2.19 µM.

Q: `Clc1ccccc1-c1nc2ccc(Br)cn2c1NC1CCCCC1` [Compound 99, 6-bromo-2-(2-chlorophenyl)-N-cyclohexylimidazo[1,2-a]pyridin-3-amine] was tested. Which IC50 did it give?
A: The IC50 was 2.19 µM.

Q: How did the IC50 turn out when `Cc1ccnc2c1NC(=O)c1cccnc1N2C1CC1` [Nevirapine, reference compound] was run?
A: Its IC50 is 0.1 µM.

Q: Which IC50 does the source give for `Cc1ccc(Cl)c(-c2nc3ccccn3c2NC2CCCCC2)c1F` [Compound 74, 2-(6-chloro-2-fluoro-3-methylphenyl)-N-cyclohexylimidazo[1,2-a]pyridin-3-amine] here?
A: The IC50 was 2.36 µM.

Q: `Brc1ccccc1-c1nc2ccccn2c1NC1CCCCC1` [Compound 43, 2-(2-bromophenyl)-N-cyclohexylimidazo[1,2-a]pyridin-3-amine] was tested. Which IC50 did it give?
A: The IC50 was 2.21 µM.
